Among the data in patent US7994196B2, “Indazole compound and pharmaceutical use thereof” (Mitsubishi Tanabe Pharma Corporation, priority 2004, dated 2011) are IC50 values, retold here.

Like-named read-outs stand apart in the source and are kept apart here.

In this assay the test system is MMP-9 production. Kind of assay: Determination of MMP-9 Production Inhibitory Activity (PMA-stimulated HEC3 cells, gelatin zymography). The format is cell-based. The settings on record: Endothelial cell, immortalized human vascular endothelial cells HEC3, PMA 10^-7 M stimulation, test substance at 10, 2, 0.4 and 0.08 μM, read-out: IC50 (MMP-9 production inhibitory rate). On the procedure: Immortalized human vascular endothelial cells HEC3 (supplied by Prof. Iijima of Nagoya University) were subcultured in RPMI1640 medium (Sigma Ltd.) containing 10% fetal calf serum.
The HEC3 cells (5×10^4 cells/well) were plated on a 24-well plate, and cultured in RPMI1640 medium containing 10% fetal calf serum for 24 hr. Each well was washed once with serum-free RPMI1640 medium. Then, RPMI1640 medium (250 μl/well) containing 0.05% fetal calf serum was added to each well, and the cells were further cultured for 2 hr.
The supernatant was removed, and the test substances (Example compounds shown in Table 1) diluted to various concentrations were added and incubated for 1 hr in 0.05% serum-containing RPMI1640 medium and the supernatant was removed again. A medium containing a test substance having the same concentration as in the pre-treatment and PMA (10^−7 M), which is a stimulant, was added at 250 μl/well, and the cells were further cultured for 24 hr.
After completion of the culture, water (50 μl) and 25 μl of SDS buffer (240 mM Tris-HCl (pH 6.8), 8% SDS, 40% glycerol) were added to the culture supernatant (25 μl), and the mixture (10 μl) was electrophoresed on a 7.5% polyacrylamide gel containing 0.1% gelatin.
After the electrophoresis, the gel was washed with Tris-HCl buffer (pH 7.5) containing 0.5% Triton X-100 (Sigma Ltd.) for 1 hr. The gel was immersed in an activation buffer (150 mM NaCl, 50 mM Tris-HCl (pH 7.5), 10 mM CaCl2) at 37° C. for 18 hr to activate MMP-9, and then stained with CBB. The obtained MMP-9 band was converted to numerical values by a densitometer (ATTO. Ltd.).
The MMP-9 production inhibitory rate by the test substance was calculated by the following equation. MMP-9 production inhibitory rate=100−100×{(test substance addition value−non-stimulation value)/(PMA stimulation value−non-stimulation value)}
The MMP-9 production inhibitory rates of the test substance at 10, 2, 0.4 and 0.08 μM were calculated, and IC50 value of the each test substance was determined using an analysis soft (RegExcel).

What is called IC50 is the concentration that gives 50% inhibition. `Cc1c(C(F)(F)F)cccc1C1(O)CCN(C(=O)Nc2n[nH]c3ccccc23)CC1` [Ex. 140, 4-hydroxy-4-[2-methyl-3-(trifluoromethyl)phenyl]-1-piperidinecarboxylic acid (1H-indazol-3-yl)amide]: the IC50 (Homo sapiens, 24 h) came out at 620 nM.
Regarding `CCc1cccc(C2(O)CCN(C(=O)Nc3n[nH]c4ccccc34)CC2)c1` [Ex. 31], for the setting “Homo sapiens, 24 h”, the IC50 was determined as 550 nM.
Take `O=C(Nc1n[nH]c2ccccc12)N1CC=C(c2ccc(F)cc2)CC1` [Ex. 50]: the IC50 (Homo sapiens, 24 h) amounted to 1300 nM.
For the compound `O=C(Nc1n[nH]c2ccccc12)N1CCC(O)(c2ccc3c(c2)OCO3)CC1` [Ex. 27], the IC50 (Homo sapiens, 24 h) was 940 nM.
With `Cc1cc(C2(O)CCN(C(=O)Nc3n[nH]c4ccccc34)CC2)ccc1Cl` [Ex. 23], the IC50 (Homo sapiens, 24 h) was 450 nM.
Consider `Cc1ccc(F)cc1C1(O)CCN(C(=O)Nc2n[nH]c3ccccc23)CC1` [Ex. 135, 4-(5-fluoro-2-methylphenyl)-4-hydroxy-1-piperidinecarboxylic acid (1H-indazol-3-yl)amide], for which the IC50 (Homo sapiens, 24 h) turned out to be 490 nM.
For `N#CC1(c2ccccc2F)CCN(C(=O)Nc2n[nH]c3ccccc23)CC1` [Ex. 43], the IC50 (24 hr) came to 450 nM.
As for `N#CC1(c2ccc(Br)s2)CCN(C(=O)Nc2n[nH]c3ccccc23)CC1` [Ex. 46], the IC50 (Homo sapiens, 24 h) worked out at 550 nM.
Consider `O=C(Nc1n[nH]c2ccccc12)N1CCC(O)(c2ccc(Cl)c(Cl)c2)CC1` [Ex. 21], for which, under “Homo sapiens, 24 h”, the IC50 was 380 nM.
On to `Cc1cccc(C2(O)CCN(C(=O)Nc3n[nH]c4ccccc34)CC2)c1C` [Ex. 144, 4-(2,3-dimethylphenyl)-4-hydroxy-1-piperidinecarboxylic acid (1H-indazol-3-yl)amide], for which, where the note is “Homo sapiens, 24 h”, the IC50 worked out at 650 nM.
As to `O=C(Nc1n[nH]c2ccccc12)N1CCc2c([nH]c3cc(F)ccc23)C1` [Ex. 71], the IC50 (Homo sapiens, 24 h) amounted to 140 nM.
As for `Cc1ccc(C2(O)CCN(C(=O)Nc3n[nH]c4ccccc34)CC2)cc1Cl` [Ex. 132, 4-(3-chloro-4-methylphenyl)-4-hydroxy-1-piperidinecarboxylic acid (1H-indazol-3-yl)amide], the half-inhibitory concentration (IC50) (Homo sapiens, 24 h) worked out at 390 nM.
Take `O=C(Nc1n[nH]c2ccccc12)N1CCC(O)(c2ccc(Cl)c(C(F)(F)F)c2)CC1` [Ex. 1]: the concentration for half-maximal inhibition (IC50) (Homo sapiens, 24 h) came to 790 nM.
On the same count and under the same terms, under `Cc1c(Cl)cccc1C1(O)CCN(C(=O)Nc2n[nH]c3ccccc23)CC1` [Ex. 131, 4-(3-chloro-2-methylphenyl)-4-hydroxy-1-piperidinecarboxylic acid (1H-indazol-3-yl)amide] stands 440 nM; under `N#Cc1cccc(C2(O)CCN(C(=O)Nc3n[nH]c4ccccc34)CC2)c1` [Ex. 29], 910 nM.
As to `COc1ccccc1C1(C#N)CCN(C(=O)Nc2n[nH]c3ccccc23)CC1` [Ex. 40], the IC50 (24 hr) amounted to 840 nM.
As for `O=C(Nc1n[nH]c2ccccc12)N1CCC(O)(c2cc(Cl)ccc2Cl)CC1` [Ex. 33], the IC50 (Homo sapiens, 24 h) is 310 nM.
With `Cc1c(F)cccc1C1(O)CCN(C(=O)Nc2n[nH]c3ccccc23)CC1` [Ex. 134, 4-(3-fluoro-2-methylphenyl)-4-hydroxy-1-piperidinecarboxylic acid (1H-indazol-3-yl)amide], the half-maximal inhibitory concentration (IC50) (Homo sapiens, 24 h) worked out at 680 nM.
Consider `O=C(Nc1n[nH]c2ccccc12)N1CCC(O)(c2ccc(Cl)cc2)CC1` [Ex. 4], for which, under “Homo sapiens, 24 h”, the IC50 was found to be 400 nM.
For `O=C(Nc1n[nH]c2ccccc12)N1CCc2c([nH]c3cc(Cl)c(F)cc23)C1` [Ex. 82, 7-chloro-6-fluoro-1,3,4,9-tetrahydro-β-carboline-2-carboxylic acid (1H-indazol-3-yl)amide], under “Homo sapiens, 24 h”, the IC50 turned out to be 100 nM.
For the compound `O=C(Nc1n[nH]c2ccccc12)N1CCC(O)(c2cccc(C(F)(F)F)c2)CC1` [Ex. 3], under “Homo sapiens, 24 h”, the IC50 was determined as 930 nM.
Still for that read-out and setting: under `O=C(Nc1n[nH]c2ccccc12)N1CCc2c([nH]c3ccc(C(F)(F)F)cc23)C1` [Ex. 69] stands 160 nM; under `O=C(Nc1n[nH]c2ccccc12)N1CCC(O)(c2ccc(F)c(Cl)c2)CC1` [Ex. 15], 450 nM; under `O=C(Nc1n[nH]c2ccccc12)N1CC=C(c2cccc(C(F)(F)F)c2)CC1` [Ex. 61], 100 nM.
Still for that read-out and setting: under `Cc1cc(C2(O)CCN(C(=O)Nc3n[nH]c4ccccc34)CC2)ccc1F` [Ex. 136, 4-(4-fluoro-3-methylphenyl)-4-hydroxy-1-piperidinecarboxylic acid (1H-indazol-3-yl)amide] stands 410 nM.
With `O=C(Nc1n[nH]c2ccccc12)N1CC=C(c2ccccc2F)CC1` [Ex. 52], where the note is “Homo sapiens, 24 h”, the IC50 stood at 320 nM.
As for `Cc1cccc(C2(O)CCN(C(=O)Nc3n[nH]c4ccccc34)CC2)c1` [Ex. 28], where the note is “Homo sapiens, 24 h”, the IC50 was 360 nM.
As to `O=C(Nc1n[nH]c2ccccc12)N1CC=C(c2cccc(F)c2F)CC1` [Ex. 56], the IC50 (Homo sapiens, 24 h) was 230 nM.
On to `O=C(Nc1n[nH]c2ccccc12)N1CCC(O)(c2cccc(Cl)c2)CC1` [Ex. 24], for which the IC50 (Homo sapiens, 24 h) was determined as 210 nM.
For the compound `CSc1cccc(C2(O)CCN(C(=O)Nc3n[nH]c4ccccc34)CC2)c1` [Ex. 30], the IC50 (Homo sapiens, 24 h) is 300 nM.
On the same count and under the same terms, under `Cc1cc(C)cc(C2(O)CCN(C(=O)Nc3n[nH]c4ccccc34)CC2)c1` [Ex. 143, 4-(3,5-dimethylphenyl)-4-hydroxy-1-piperidinecarboxylic acid (1H-indazol-3-yl)amide] stands 280 nM; under `COc1ccc(N2CCN(C(=O)Nc3n[nH]c4ccccc34)CC2)cc1C(F)(F)F` [Ex. 95, 4-[4-methoxy-3-(trifluoromethyl)phenyl]-1-piperazinecarboxylic acid (1H-indazol-3-yl)amide], 510 nM; under `O=C(Nc1n[nH]c2ccccc12)N1CC=C(c2cccs2)CC1` [Ex. 60], 130 nM.
Regarding `CC1CN(C(=O)Nc2n[nH]c3ccccc23)CCN1c1ccc(Cl)c(C(F)(F)F)c1` (stereo not drawn) [Ex. 117], the IC50 (Homo sapiens, 24 h) was found to be 930 nM.
For `Cc1cc(F)cc(C2(O)CCN(C(=O)Nc3n[nH]c4ccccc34)CC2)c1` [Ex. 138, 4-(3-fluoro-5-methylphenyl)-4-hydroxy-1-piperidinecarboxylic acid (1H-indazol-3-yl)amide], under “Homo sapiens, 24 h”, the IC50 was found to be 100 nM.
For `COc1ccc2[nH]c3c(c2c1)CCN(C(=O)Nc1n[nH]c2ccccc12)C3` [Ex. 73], the IC50 (Homo sapiens, 24 h) was 90 nM.
`O=C(Nc1n[nH]c2ccccc12)N1CCc2c([nH]c3cc(Cl)c(C(F)(F)F)cc23)C1` [Ex. 83, 7-chloro-6-(trifluoromethyl)-1,3,4,9-tetrahydro-β-carboline-2-carboxylic acid (1H-indazol-3-yl)amide]: for the setting “Homo sapiens, 24 h”, the IC50 was found to be 420 nM.
As for `O=C(Nc1n[nH]c2ccccc12)N1CCC(O)(c2cc(F)cc(Cl)c2)CC1` [Ex. 22], under “Homo sapiens, 24 h”, the IC50 came out at 330 nM.
Regarding `O=C(Nc1n[nH]c2ccccc12)N1CC=C(c2cccc(F)c2)CC1` [Ex. 55], the 50% inhibitory concentration (IC50) (Homo sapiens, 24 h) was found to be 130 nM.
For the compound `O=C(Nc1n[nH]c2ccccc12)N1CCc2c([nH]c3ccc(O)cc23)C1` [Ex. 74], the IC50 (Homo sapiens, 24 h) amounted to 150 nM.
As for `O=C(Nc1n[nH]c2ccccc12)N1CCC(O)(c2cc(C(F)(F)F)ccc2Cl)CC1` [Ex. 36], the IC50 (Homo sapiens, 24 h) was 540 nM.
Turning to `O=C(Nc1n[nH]c2ccccc12)N1CCN(c2cccc(C(F)(F)F)c2)CC1` [Ex. 100, 4-[3-(trifluoromethyl)phenyl]-1-piperazinecarboxylic acid (1H-indazol-3-yl)amide], the half-inhibitory concentration (IC50) (Homo sapiens, 24 h) is 230 nM.
On to `O=C(Nc1n[nH]c2ccccc12)N1CCN(c2cc(F)cc(C(F)(F)F)c2)CC1` [Ex. 97, 4-[3-fluoro-5-(trifluoromethyl)phenyl]-1-piperazinecarboxylic acid (1H-indazol-3-yl)amide], for which the IC50 (Homo sapiens, 24 h) is 210 nM.
As for `O=C(Nc1n[nH]c2ccccc12)N1CCC(O)(c2cc(C(F)(F)F)ccc2F)CC1` [Ex. 35], the IC50 (Homo sapiens, 24 h) came to 720 nM.
`Cc1ccc(C2(O)CCN(C(=O)Nc3n[nH]c4ccccc34)CC2)cc1C(F)(F)F` [Ex. 10]: for the setting “Homo sapiens, 24 h”, the IC50 is 530 nM.
Take `O=C(Nc1n[nH]c2ccccc12)N1CC=C(c2ccc(Cl)s2)CC1` [Ex. 58]: under “Homo sapiens, 24 h”, the IC50 came to 120 nM.
Same read-out and setting: under `Cc1cccc2c3c([nH]c12)CN(C(=O)Nc1n[nH]c2ccccc12)CC3` [Ex. 79, 8-methyl-1,3,4,9-tetrahydro-β-carboline-2-carboxylic acid (1H-indazol-3-yl)amide] stands 160 nM.
For `N#CC1(c2ccc(Br)cc2Cl)CCN(C(=O)Nc2n[nH]c3ccccc23)CC1` [Ex. 48], the IC50 (24 hr) is 770 nM.
